The IC50 is the concentration needed to halve the response being measured. In general, inhibition refers to the change of the read-out against control, counted positive when it falls. A word on the bioavailability: it is the share of a dose that reaches the circulation, judged against a reference dose that is usually intravenous.

The text below walks through data of ChEMBL document CHEMBL4602617, “Discovery and optimization of heteroaryl piperazines as potent and selective PI3Kδ inhibitors” (Bioorg Med Chem Lett, 2020).

For one data set, the target named is Aurora kinase B (Homo sapiens, UniProt Q96GD4). Put plainly: Inhibition of recombinant full length His-tagged human AURKB expressed in baculovirus expression system using Ser/Thr-01 peptide as substrate incubated for 60 mins in presence of ATP by Z'-LYTE assay.
Sequence of Aurora kinase B (Q96GD4 whole entry, canonical isoform): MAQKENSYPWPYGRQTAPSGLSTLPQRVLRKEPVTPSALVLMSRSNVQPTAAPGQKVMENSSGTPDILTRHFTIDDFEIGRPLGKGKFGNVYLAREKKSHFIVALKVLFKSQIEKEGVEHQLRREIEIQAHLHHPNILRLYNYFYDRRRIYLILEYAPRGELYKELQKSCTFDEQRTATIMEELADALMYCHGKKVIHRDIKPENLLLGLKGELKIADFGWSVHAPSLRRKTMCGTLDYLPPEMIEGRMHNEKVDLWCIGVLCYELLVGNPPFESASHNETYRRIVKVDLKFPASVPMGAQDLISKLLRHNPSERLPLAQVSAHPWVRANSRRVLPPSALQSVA
Data set [1] concerns the target Phosphorylase b kinase gamma catalytic chain, skeletal muscle/heart isoform (Homo sapiens, UniProt Q16816). Put plainly: Inhibition of recombinant full length human GST-tagged PHKG1 expressed in baculovirus expression system using serine/threonine-7 peptide as substrate incubated for 60 mins in presence of ATP by Z'-LYTE assay.
In data set [2] the target is Glutamate NMDA receptor (Rattus norvegicus) (UniProt P35439+Q00959+Q00960+Q00961+Q62645+Q8VHN2+Q9R1M7). Put plainly: Displacement of [3H]Ifenprodil from in glutamate NMDA receptor polyamine binding site in Wistar rat cerebral cortex at 10 uM incubated for 120 mins by radiometric scintillation analysis relative to control. In general terms: Loss of bound radioactivity is the signal in a displacement assay; it reports binding, not function.

In data set [3] the target is Epidermal growth factor receptor (Homo sapiens, UniProt P00533, L861Q). Put plainly: Inhibition of human recombinant GST-tagged EGFR L861Q mutant cytoplasmic domain expressed in baculovirus expression system using tyrosine 4 peptide as substrate after 60 mins in presence of ATP FRET based Z'-LYTE assay.
Data set [4] has as its target Dual specificity tyrosine-phosphorylation-regulated kinase 4 (Homo sapiens, UniProt Q9NR20). Put plainly: Inhibition of recombinant full length human GST-tagged DYRK4 expressed in baculovirus expression system using serine/threonine-9 peptide as substrate incubated for 60 mins in presence of ATP by Z'-LYTE assay.
The target of data set [5] is Serine/threonine-protein kinase Nek7 (Homo sapiens, UniProt Q8TDX7). Put plainly: Inhibition of NEK7 (unknown origin) by Z'LYTE assay.
Sequence of Serine/threonine-protein kinase Nek7 (Q8TDX7 whole entry, the tested form may be a part): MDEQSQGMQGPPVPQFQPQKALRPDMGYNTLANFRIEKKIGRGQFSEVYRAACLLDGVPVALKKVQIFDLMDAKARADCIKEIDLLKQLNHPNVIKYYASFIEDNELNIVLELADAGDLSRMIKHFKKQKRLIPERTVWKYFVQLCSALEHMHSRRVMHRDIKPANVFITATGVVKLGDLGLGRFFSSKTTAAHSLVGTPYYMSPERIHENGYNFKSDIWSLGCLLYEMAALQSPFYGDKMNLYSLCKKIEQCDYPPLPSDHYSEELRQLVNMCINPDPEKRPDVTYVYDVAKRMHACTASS
In data set [6] the target is Serine/threonine-protein kinase Sgk3 (Homo sapiens, UniProt Q96BR1). Put plainly: Inhibition of recombinant human GST-tagged SGK3 catalytic domain (87 to 496 residues) expressed in baculovirus expression system using serine/threonine-6 peptide as substrate incubated for 60 mins in presence of ATP by Z'-LYTE assay.
Sequence of Serine/threonine-protein kinase Sgk3 (Q96BR1 whole entry, the tested form may be a part): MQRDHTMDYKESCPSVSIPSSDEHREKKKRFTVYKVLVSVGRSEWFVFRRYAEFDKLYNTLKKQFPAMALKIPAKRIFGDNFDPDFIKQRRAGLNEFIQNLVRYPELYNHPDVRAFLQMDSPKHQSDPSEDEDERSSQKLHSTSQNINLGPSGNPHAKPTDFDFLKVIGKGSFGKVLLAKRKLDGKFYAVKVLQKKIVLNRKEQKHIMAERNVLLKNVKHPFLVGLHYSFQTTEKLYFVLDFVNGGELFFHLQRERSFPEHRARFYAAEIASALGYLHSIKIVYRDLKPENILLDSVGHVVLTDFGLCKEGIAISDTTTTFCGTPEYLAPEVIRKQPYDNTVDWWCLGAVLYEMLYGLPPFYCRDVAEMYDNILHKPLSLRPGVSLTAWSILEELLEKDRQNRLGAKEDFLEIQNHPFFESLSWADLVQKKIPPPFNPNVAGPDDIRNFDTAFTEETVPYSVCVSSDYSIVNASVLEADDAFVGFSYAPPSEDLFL
The target in data set [7] is Somatostatin receptor type 2 (Homo sapiens) (UniProt P30874). Put plainly: Displacement of [125I]Tyr11-Somatostatin 14 from recombinant full length human SST2 expressed in CHO-K1 cells at 10 uM after 4 hrs by radiometric scintillation analysis relative to control. Type of data set: cell-based.
Sequence of Somatostatin receptor type 2 (Homo sapiens) (P30874 whole entry): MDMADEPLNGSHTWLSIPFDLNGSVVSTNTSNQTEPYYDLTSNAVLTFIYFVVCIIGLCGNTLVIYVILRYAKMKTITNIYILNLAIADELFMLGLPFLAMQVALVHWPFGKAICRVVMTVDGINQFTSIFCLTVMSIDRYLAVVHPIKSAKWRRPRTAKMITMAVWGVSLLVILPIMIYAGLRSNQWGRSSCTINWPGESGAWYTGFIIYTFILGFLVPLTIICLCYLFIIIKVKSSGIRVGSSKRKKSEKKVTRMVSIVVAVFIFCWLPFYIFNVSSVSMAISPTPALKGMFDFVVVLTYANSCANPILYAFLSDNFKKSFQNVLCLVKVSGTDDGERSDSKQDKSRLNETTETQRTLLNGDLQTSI
In data set [8] the target is Glycine receptor (Rattus norvegicus) (UniProt P22771+P24524+P07727+P20781). Put plainly: Displacement of [3H]strychnine from glycine ion channel in Wistar rat spinal cord membranes at 10 uM incubated for 10 mins by radiometric scintillation analysis relative to control. Type of data set: cell membranes. The following applies: Membrane.
Data set [9] addresses cGMP-dependent protein kinase 2 (Homo sapiens, UniProt Q13237). Put plainly: Inhibition of recombinant full length GST-tagged human PKG2 expressed in baculovirus expression system using Ser/Thr 01 as substrate after 1 hr in presence of ATP by Z'-LYTE assay.
For data set [10], the target named is Protein kinase C epsilon type (Homo sapiens, UniProt Q02156). Put plainly: Inhibition of recombinant full length human GST-tagged PRKCE expressed in insect expression system using serine/threonine-7 peptide as substrate incubated for 60 mins in presence of ATP by Z'-LYTE assay.
Data set [11] addresses Tyrosine-protein kinase JAK1 (Homo sapiens, UniProt P23458). Put plainly: Inhibition of human recombinant GST tagged JAK1 expressed in baculovirus expression system using Tyr6 peptide as substrate measured after 1 hr in presence of ATP by Z'-LYTE assay.
Data set [12] addresses Serine/threonine-protein kinase PLK2 (Homo sapiens, UniProt Q9NYY3). Put plainly: Inhibition of recombinant full length human GST-tagged PLK2 expressed in baculovirus expression system using serine/threonine-16 peptide as substrate incubated for 60 mins in presence of ATP by Z'-LYTE assay.
Data set [13] has as its target Homeodomain-interacting protein kinase 2 (Homo sapiens, UniProt Q9H2X6). Put plainly: Inhibition of recombinant human GST-tagged HIPK2 expressed in baculovirus expression system using serine/threonine-9 peptide as substrate incubated for 60 mins in presence of ATP by Z'-LYTE assay.
Data set [14] deals with Inhibitor of nuclear factor kappa-B kinase subunit epsilon (Homo sapiens, UniProt Q14164). Put plainly: Inhibition of recombinant human full-length GST-tagged IKBKE expressed in baculovirus expression system using Ser/Thr 11 peptide as substrate measured after 1 hr in presence of ATP by Z'-lyte assay.
The target in data set [15] is PI3-kinase p110-delta/p85-alpha (Homo sapiens, UniProt O00329). Put plainly: Inhibition of recombinant human full-length N-terminal GST-tagged p110delta/untagged full-length p85alpha expressed in baculovirus infected Sf21 cells using PIP2 as substrate preincubated for 15 mins followed by substrate addition and measured after 1 hr by HTRF assay.
The target of data set [16] is Macrophage-stimulating protein receptor (Homo sapiens, UniProt Q04912). Put plainly: Inhibition of recombinant human GST-tagged RON catalytic domain (983 to 1400 residues) expressed in baculovirus expression system using tyrosine-6 peptide as substrate incubated for 60 mins in presence of ATP by Z'-LYTE assay.
Sequence of Macrophage-stimulating protein receptor (Q04912 25-304 limits assumed): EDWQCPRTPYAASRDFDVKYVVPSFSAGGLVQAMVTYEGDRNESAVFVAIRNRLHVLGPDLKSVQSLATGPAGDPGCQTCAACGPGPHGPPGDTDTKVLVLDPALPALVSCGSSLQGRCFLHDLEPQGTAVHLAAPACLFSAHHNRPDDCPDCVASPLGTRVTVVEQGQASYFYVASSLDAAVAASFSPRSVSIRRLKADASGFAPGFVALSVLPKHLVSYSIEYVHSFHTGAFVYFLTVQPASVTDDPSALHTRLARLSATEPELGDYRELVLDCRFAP
Sequence of Macrophage-stimulating protein receptor (Q04912 310-1400 limits assumed): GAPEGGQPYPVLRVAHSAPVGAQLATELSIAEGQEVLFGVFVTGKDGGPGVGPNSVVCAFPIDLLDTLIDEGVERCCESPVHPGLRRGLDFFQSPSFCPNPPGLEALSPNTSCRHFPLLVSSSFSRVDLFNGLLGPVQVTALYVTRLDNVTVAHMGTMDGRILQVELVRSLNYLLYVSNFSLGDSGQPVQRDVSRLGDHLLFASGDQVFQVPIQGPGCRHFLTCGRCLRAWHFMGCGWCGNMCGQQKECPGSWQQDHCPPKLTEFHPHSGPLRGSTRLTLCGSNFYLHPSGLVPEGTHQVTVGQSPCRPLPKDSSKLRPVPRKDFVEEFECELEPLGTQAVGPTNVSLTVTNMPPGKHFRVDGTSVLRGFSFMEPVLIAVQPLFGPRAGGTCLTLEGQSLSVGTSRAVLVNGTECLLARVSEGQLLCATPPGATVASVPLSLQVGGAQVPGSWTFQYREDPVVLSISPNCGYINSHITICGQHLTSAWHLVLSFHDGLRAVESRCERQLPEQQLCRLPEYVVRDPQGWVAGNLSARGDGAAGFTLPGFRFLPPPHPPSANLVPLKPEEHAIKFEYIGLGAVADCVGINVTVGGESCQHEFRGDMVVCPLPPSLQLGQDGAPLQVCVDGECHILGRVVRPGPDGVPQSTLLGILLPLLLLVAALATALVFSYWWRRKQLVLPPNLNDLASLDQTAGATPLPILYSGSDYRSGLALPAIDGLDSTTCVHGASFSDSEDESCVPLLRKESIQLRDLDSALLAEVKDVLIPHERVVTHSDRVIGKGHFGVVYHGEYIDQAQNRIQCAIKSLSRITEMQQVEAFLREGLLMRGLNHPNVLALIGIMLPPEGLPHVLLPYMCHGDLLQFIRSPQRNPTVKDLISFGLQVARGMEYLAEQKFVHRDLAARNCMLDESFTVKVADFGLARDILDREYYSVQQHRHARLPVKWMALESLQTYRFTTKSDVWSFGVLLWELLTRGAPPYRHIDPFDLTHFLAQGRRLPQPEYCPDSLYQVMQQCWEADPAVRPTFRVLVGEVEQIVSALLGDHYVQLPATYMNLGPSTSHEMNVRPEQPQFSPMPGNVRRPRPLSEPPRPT
The target in data set [17] is Serine/threonine-protein kinase D3 (Homo sapiens, UniProt O94806). Put plainly: Inhibition of recombinant full length human GST-tagged PKD3 expressed in baculovirus expression system using serine/threonine-17 peptide as substrate incubated for 60 mins in presence of ATP by Z'-LYTE assay.
The target of data set [18] is Non-receptor tyrosine-protein kinase TYK2 (Homo sapiens, UniProt P29597). Put plainly: Inhibition of recombinant human GST-tagged TYK2 catalytic domain (833 to 1187 residues) expressed in baculovirus expression system using tyrosine-3 peptide as substrate incubated for 60 mins in presence of ATP by Z'-LYTE assay.
Sequence of Non-receptor tyrosine-protein kinase TYK2 (P29597 whole entry, the tested form may be a part, canonical isoform): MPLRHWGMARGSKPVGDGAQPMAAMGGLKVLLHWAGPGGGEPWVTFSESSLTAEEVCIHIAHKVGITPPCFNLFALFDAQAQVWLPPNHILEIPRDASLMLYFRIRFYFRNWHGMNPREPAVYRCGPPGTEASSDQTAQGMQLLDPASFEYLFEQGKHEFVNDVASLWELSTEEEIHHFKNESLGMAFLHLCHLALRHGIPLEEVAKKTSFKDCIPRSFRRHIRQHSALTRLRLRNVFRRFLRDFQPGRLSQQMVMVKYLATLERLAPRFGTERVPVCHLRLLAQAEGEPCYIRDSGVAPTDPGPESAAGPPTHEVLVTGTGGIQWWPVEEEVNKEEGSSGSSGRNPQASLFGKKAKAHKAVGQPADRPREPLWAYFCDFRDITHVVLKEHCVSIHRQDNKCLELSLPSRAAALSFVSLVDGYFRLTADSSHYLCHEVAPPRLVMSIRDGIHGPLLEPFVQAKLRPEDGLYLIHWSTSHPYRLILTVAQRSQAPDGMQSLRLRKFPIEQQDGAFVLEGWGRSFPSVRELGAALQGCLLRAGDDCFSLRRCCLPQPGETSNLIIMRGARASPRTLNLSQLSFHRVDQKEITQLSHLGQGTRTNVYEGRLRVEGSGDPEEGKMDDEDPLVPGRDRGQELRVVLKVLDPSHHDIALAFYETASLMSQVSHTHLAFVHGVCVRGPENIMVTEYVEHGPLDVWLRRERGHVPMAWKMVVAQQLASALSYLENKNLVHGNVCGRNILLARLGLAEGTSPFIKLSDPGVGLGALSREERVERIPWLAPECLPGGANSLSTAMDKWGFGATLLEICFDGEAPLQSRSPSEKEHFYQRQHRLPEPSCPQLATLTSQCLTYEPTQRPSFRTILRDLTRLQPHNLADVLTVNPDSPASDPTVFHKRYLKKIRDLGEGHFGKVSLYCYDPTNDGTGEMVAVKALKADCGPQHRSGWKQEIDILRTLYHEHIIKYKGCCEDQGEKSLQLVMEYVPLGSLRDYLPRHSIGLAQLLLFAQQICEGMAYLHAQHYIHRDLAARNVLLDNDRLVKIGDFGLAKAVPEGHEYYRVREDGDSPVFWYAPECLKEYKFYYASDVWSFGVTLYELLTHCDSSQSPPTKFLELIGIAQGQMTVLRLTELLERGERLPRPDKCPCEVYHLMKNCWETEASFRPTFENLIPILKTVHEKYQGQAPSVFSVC
Data set [19] concerns the target Casein kinase I isoform epsilon (Homo sapiens, UniProt P49674). Put plainly: Inhibition of recombinant human full-length GST-tagged CSNK1E expressed in insect cells using FRET-labeled Ser/Thr 11 peptide as substrate measured after 1 hr in presence of ATP by Z'-lyte assay.
The target in data set [20] is Fibroblast growth factor receptor 3 (Homo sapiens, UniProt P22607, K650E). Put plainly: Inhibition of recombinant N-terminal His-tagged human FGFR3 K650E mutant (398 to 806 residues) cytoplasmic domain expressed in baculovirus expression system using Tyr 04 peptide as substrate after 1 hr in presence of ATP by Z'-LYTE assay.
A short description of data set [21]: Oral bioavailability in dog at 0.5 mg/kg. The following applies: in vivo. Type of data set: ADME, organism-based, Canis lupus familiaris.
For data set [22], the target named is Mitogen-activated protein kinase 3 (Homo sapiens, UniProt P27361). Put plainly: Inhibition of recombinant full length human GST-tagged ERK1 expressed in Escherichia coli using fluorophore-labeled serine/threonine-3 peptide as substrate incubated for 60 mins in presence of ATP by Z'-LYTE assay.
Sequence of Mitogen-activated protein kinase 3 (P27361 whole entry): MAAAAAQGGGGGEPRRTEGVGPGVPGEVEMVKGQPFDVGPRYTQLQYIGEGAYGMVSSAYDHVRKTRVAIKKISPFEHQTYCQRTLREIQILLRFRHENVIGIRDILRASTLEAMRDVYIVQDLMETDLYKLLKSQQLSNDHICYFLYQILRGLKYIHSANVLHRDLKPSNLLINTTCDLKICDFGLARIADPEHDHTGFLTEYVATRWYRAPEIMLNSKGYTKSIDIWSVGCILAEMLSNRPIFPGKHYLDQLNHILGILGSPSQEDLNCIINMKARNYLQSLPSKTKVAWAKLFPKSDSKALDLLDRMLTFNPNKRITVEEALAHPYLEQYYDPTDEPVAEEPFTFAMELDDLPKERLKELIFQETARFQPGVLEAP
Data set [23] addresses Serine/threonine-protein kinase PAK 3 (Homo sapiens, UniProt O75914). Put plainly: Inhibition of recombinant full length human His-tagged PAK3 expressed in baculovirus expression system using serine/threonine-20 peptide as substrate incubated for 60 mins in presence of ATP by Z'-LYTE assay.

Sequence of Serine/threonine-protein kinase PAK 3 (O75914 whole entry): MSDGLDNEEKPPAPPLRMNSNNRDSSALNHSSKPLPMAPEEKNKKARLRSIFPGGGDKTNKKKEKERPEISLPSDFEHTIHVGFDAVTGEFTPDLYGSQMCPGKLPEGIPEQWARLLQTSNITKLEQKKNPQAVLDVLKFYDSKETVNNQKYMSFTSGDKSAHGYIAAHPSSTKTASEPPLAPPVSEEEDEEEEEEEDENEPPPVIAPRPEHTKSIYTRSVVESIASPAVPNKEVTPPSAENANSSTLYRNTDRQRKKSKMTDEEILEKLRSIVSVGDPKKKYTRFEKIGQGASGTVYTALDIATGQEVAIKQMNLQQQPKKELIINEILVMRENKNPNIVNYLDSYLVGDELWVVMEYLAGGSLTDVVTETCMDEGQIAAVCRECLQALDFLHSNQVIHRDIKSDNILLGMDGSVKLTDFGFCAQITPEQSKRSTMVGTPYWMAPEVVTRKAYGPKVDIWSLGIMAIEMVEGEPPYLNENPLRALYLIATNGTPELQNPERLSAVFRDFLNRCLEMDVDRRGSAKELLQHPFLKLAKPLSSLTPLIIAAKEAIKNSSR

As to `C[C@@H]1C[C@H]1C(=O)N1CCN(c2cnc(C#N)c(-c3cnn(C)c3)n2)C[C@H]1C`, the IC50 (at Aurora kinase B; in [1]; in data set [3]; in [4]; in data set [5]; in data set [6]) was more than 100 µM in each case. Besides, the IC50 in [9], in data set [10], in data set [11], in data set [12], in data set [13] and in data set [14] was more than 100 µM throughout. In addition, the IC50 in data set [15] was 0.009 µM; in data set [16], more than 100 µM; in [17], more than 100 µM; in data set [18], more than 100 µM; in [19] it was more than 100 µM; in data set [20], more than 100 µM. Besides, the IC50 in [22] and in data set [23] was more than 100 µM in each case. The inhibition was 0% in [2], -5% in data set [7] and 3% in data set [8]. The bioavailability in data set [21] was 100%.
